Test results reported in ChEMBL document CHEMBL4346764, “Design, synthesis, and evaluation of N-(4-(4-phenyl piperazin-1-yl)butyl)-4-(thiophen-3-yl)benzamides as selective dopamine D3 receptor ligands” (Bioorg Med Chem Lett, 2019).

Experiments:
[1] = AUC in Sprague-Dawley rat at 1 mg/kg, iv by LC/MS/MS analysis; format: ADME, organism-based; details: in vivo
[2] = Volume of distribution at steady state in Sprague-Dawley rat at 1 mg/kg, iv by LC/MS/MS analysis; format: ADME, organism-based; details: in vivo, read-out: Vdss

Row | Compound | AUC [1] [ng·h/mL] | Vd [2] [L/kg]
1 | N#Cc1cccc(N2CCN(CCCCNC(=O)c3ccc(-c4ccsc4)cc3)CC2)c1 | 220 | 28.6
2 | O=C(NCCCCN1CCN(c2cc(Cl)cc(Cl)c2)CC1)c1ccc(-c2ccsc2)cc1 | 210 | 55.7
